# Laboratory results taken from publication PMC10974945, “Targeting MutT Homolog 1 (MTH1) for Breast Cancer Suppression by Using a Novel MTH1 Inhibitor MA−24 with Tumor-Selective Toxicity” (Pharmaceuticals, 2024).
# Read-outs that look alike come from different tables or passages of the source.
# Columns and labels:
# 4T1 breast cancer tumor = 4T1 breast cancer tumor model in Balb/c mice; conditions: for Ki67 expression / tumor cell proliferation in tumors / body weight compared to the control group: MA−24 60 mg/kg; for body weight compared to the control group: TH287 200 mg/kg i.p. every three days
# Description: All animal experiments were carried out in accordance with a protocol approved by the Animal Ethics Committee of the China Pharmaceutical University. Female BALB/C mice were given food and water ad libitum. Approximately 7-week-old mice were injected subcutaneously with 2 × 10^5 4T1 cells in the left flank. When the mean tumor size reached 30~50 mm^3, vehicle (composed with 1% DMSO, 10% ethanol, 10% Chremophor EL, and 10% Tween-80, diluted with PBS), MTH1 inhibitor (MA−24 at 60 mg/kg or TH287 at 200 mg/kg), or 5-FU (30 mg/kg) was administered intraperitoneally every three days. Tumor size and body weights were measured twice weekly starting on the first day of treatment. Moreover, to minimize animal suffering, euthanasia by cervical dislocation was performed when the maximum diameter of the tumors exceeded 1 cm.
# HEK-293F cells = assay: MTT cell viability/proliferation assay, HEK-293F (immortalized); assay type: cell-based; conditions: HEK293F, 48 h, read-out: IC50 on HEK-293F proliferation (mean ± SD)
# Description: (§1) Human breast cancer cell lines (MCF-7: ER+, PR+, HER2-, EGFR+, MB-MDA-MB-231: […] All cells were cultured in suitable medium supplemented with 10% fetal bovine serum (FBS; […] Biotechnology Co., Ltd., Hangzhou, China), 100 U/mL penicillin, and 100 μg/mL streptomycin (Invitrogen, Carlsbad, CA, USA) at 37 °C in 5% CO2. MCF-7, MB-MDA-MB-231, HEK-293F, and HUVEC were grown in Dulbecco's modified Eagle's medium (DMEM; […] Subsequently, cells were treated with compound or vehicle (maximum 0.3% DMSO). After 48 h, cells were treated with MTT; the absorbance of the assay plate was read at 490 nm using a Multiskan GO Microplate Spectrophotometer (Thermo Fisher Scientific, Waltham, MA, USA).
# MCF−7 cells [1] = assay: Alkaline comet assay in MCF−7 cells; assay type: cell-based, human; conditions: 10 μM, 2 days
# Description: MCF−7 cells (300,000 cells) were plated in 6-well plates and incubated for 24 h at 37 °C and 5% CO2. Subsequently, cells were treated with a compound (10 μM MA−24 and TH287) or vehicle (0.1% DMSO) for 2 days or with 150 μM for 10 min on ice. Cells were harvested as above. After washing twice with PBS, cells were re-suspended in PBS. Then, the 30 μL cell suspension was mixed with 150 µL 1.2% low-melting agarose that was maintained at 37 °C. The mixture was layered onto pre-warmed (37 °C) agarose-coated glass slides. The slides were kept on ice for 10 min and incubated in lysis buffer (10 mM Tris pH 7.7, 2.5 M NaCl, 0.1 M EDTA, 1% DMSO, and 1% Triton X-100) at 4 °C overnight in the dark. Slides were washed twice with enzyme reaction buffer (40 mM HEPES pH 8.0, 0.1 M KCl, 0.5 mM EDTA, and 0.2 mg/mL BSA) and incubated with Fpg […] (8 U/mL, New England Biolabs, Shanghai, China) at 37 °C for 45 min. Slides were washed once with enzyme reaction buffer and incubated in alkaline electrophoresis buffer (50 mM NaOH, 1 mM EDTA, and 1% DMSO) for 20 min. […] Images were acquired with a fluorescence microscope (Olympus Corporation, Tokyo, Japan) and quantified using Comet Score software, Version 1.5. At least 100 comets per sample were analyzed. Tail moment is calculated as the percentage of DNA in the tail multiplied by the tail length.
# 4T1 cells = assay: MTT cell viability/proliferation assay, 4T1; assay type: cell-based, murine; conditions: Mus musculus, read-out: IC50 on 4T1 proliferation (mean ± SD)
# Description: as §1
# MTH1 [2] = molecular target: T1, MTH1 (Homo sapiens, UniProt P36639); assay: MTH1 enzymatic inhibition, malachite green colorimetric assay; assay type: biochemical
# Description: MTH1, inorganic pyrophosphatase, and dGTP (Thermo Fisher Scientific, Waltham, MA, USA) were diluted in assay buffer containing 100 mM Tris-acetate at pH 8.0, 40 mM NaCl, 10 mM Mg-acetate, 0.005% Tween 20, and 1 mM DTT. Briefly, serial dilutions of compounds were dissolved in assay buffer; meanwhile, MTH1 was diluted to 4 μg/mL, and then these two solutions were mixed and filled with buffer to 186 µL. After 15 min incubation at 25 °C, 10 µL dGTP (final concentration […]) and 4 µL inorganic pyrophosphatase (final concentration 0.2 U/mL) were added to start the reaction. The reaction mixture was incubated with shaking for 45 min at 25°C. Finally, 50 µL of malachite green assay reagent was added and incubated with shaking for 15 min at 25 °C. The absorbance of the assay plate was read at 630 nm using a Multiskan GO Microplate Spectrophotometer (Thermo Fisher Scientific, Waltham, MA, USA) and IC50 values were calculated using GraphPad Prism 9.5.1 Software.
# MTH1 [3] = molecular target: T1, MTH1; assay: Kinetic analysis of MTH1 inhibition (reciprocal plot); assay type: biochemical; conditions: consistent 1/Vmax
# HUVEC cells = assay: MTT cell viability/proliferation assay, HUVEC (immortalized); assay type: cell-based; conditions: Homo sapiens, 48 h, read-out: IC50 on HUVEC proliferation (mean ± SD)
# Description: as §1
# CHO cells = assay: MTT cell viability/proliferation assay, CHO (immortalized); assay type: cell-based; conditions: Cricetulus griseus, 48 h, read-out: IC50 on CHO proliferation (mean ± SD)
# Description: as §1
# MCF−7 cells [4] = assay: MTT cell viability/proliferation assay, MCF−7; assay type: cell-based; conditions: Homo sapiens; for IC50: read-out: IC50 against MCF−7 cell proliferation (mean ± SD); for inhibition at 200 µM: compound concentration 200 μM, read-out: Inhibition (%) (Mean ± SD) of MCF−7 cell proliferation
# Description: as §1
# MCF−7 cells [5] = assay: Western blot of apoptosis and p38 MAPK proteins in MCF−7 cells; assay type: cell-based, human; conditions: for expression of p38: high concentrations
# Description: Total protein was obtained using RIPA lysis buffer (Beyotime Biotechnology, Shanghai, China) supplemented with phenylmethanesulfonyl fluoride (Beyotime Biotechnology, Shanghai, China), separated by SDS-PAGE, and transferred to the PVDF membrane by electroblotting (Bio-Rad, Hercules, CA, USA) followed by blocking with 5% milk in TBST. MTH1 antibody (Cat.No.ab200832, Abcam, Eugene, OR, USA), β-actin antibody (Cat.No.ab8227; Abcam, Eugene, OR, USA), ccaspae-3 antibody (Cat.No.14220, CST, Boston, USA), cleaved caspase-3 antibody (Asp175) (Cat.No.9664, CST, Boston, MA, USA), cleaved PARP antibody (Asp214) (Cat.No.95696, CST, Boston, MA, USA), p38 (Cat.No.9212, CST, Boston, MA, USA), and phospho-p38 MAPK (Thr180/Tyr182) (Cat.No.9211, CST, Boston, MA, USA) were used at a dilution of 1:1000–1:5000. Upon addition of primary and HRP-conjugated secondary antibodies, blots were detected using an ECL substrate (Thermo Fisher Scientific, Waltham, MA, USA) and the Tanon 5200 Chemiluminescent Imaging System (Tanon, Shanghai, China).
# MDA-MB-231 cells = assay: MTT cell viability/proliferation assay, MDA-MB-231; assay type: cell-based; conditions: Homo sapiens, read-out: IC50 on MDA-MB-231 proliferation (mean ± SD)
# Description: as §1
# MTH1 [6] = molecular target: T1, MTH1; assay: Target engagement by cellular thermal shift assay (CETSA) in MCF−7 cells; assay type: cell-based; conditions: 50 μM, 4.5 h, 42 to 75 °C
# Description: MCF−7 cells cultured in 6-well plates for 24 h were exposed to vehicle (0.5% DMSO) or 50 μM TH287 or MA−24 for 4.5 h. After trypsinization cells were detached, spun down and resuspended in PBS. Eight equational cells were heated for 3 min from 42 to 75 °C, and then lysed using RIPA lysis buffer. Western blot analysis was used to analyze the amounts of stabilized MTH1 using the MTH1 antibody.
# [7] = set-up: method as in PMID 24695224; conditions: in vitro studies; cited from earlier work
# [8] = set-up: method as in PMID 25459754; conditions: intraperitoneal injection, cited from earlier work
# [9] = 5-FU 30 mg/kg i.p. every three days, 4T1 tumor
# [10] = malachite green staining assay, dGTP substrate, read-out: IC50 to MTH1 (mean ± SD)
compound,measurement,setting,value
"O=c1[nH]cc(F)c(=O)[nH]1 [5-FU, 5-fluorouracil]",tumor growth inhibition rate,"4T1 breast cancer tumor; 30 mg/kg intraperitoneally every three days, 4T1 tumor",81.9%
same,toxicity: mouse mortality,4T1 breast cancer tumor; 5-FU 30 mg/kg i.p. every three days,mouse mortality starting from the 16th day of treatment
same,Ki67 expression / tumor cell proliferation in tumors,4T1 breast cancer tumor; [9],inhibitory effect on tumor cell proliferation
CNc1cc(NCCc2ccc(C)cc2)nc(N)n1 [MA−24],IC50,"HEK-293F cells; MTT assay, immortalized cells",≥ 75 µM
same,DNA strand breaks (comet assay),MCF−7 cells [1],significantly increased DNA strand breaks
same,tumor growth inhibition rate,"4T1 breast cancer tumor; 60 mg/kg intraperitoneally every three days, 4T1 tumor",61.8%
same,lung metastasis,"4T1 breast cancer tumor; MA−24 60 mg/kg i.p. every three days, 4T1 tumor",reduced lung metastasis
same,Ki67 expression / tumor cell proliferation in tumors,4T1 breast cancer tumor; [9],moderate reduction in Ki67 expression
same,body weight compared to the control group,4T1 breast cancer tumor,no statistically significant differences
same,IC50,"4T1 cells; 4T1, MTT assay, 48 h, cancer cell line",14.8 ± 1.42 µM
same,IC50,MTH1 [2]; [10],0.0104 ± 0.00028 µM
same,type of inhibition on MTH1 with respect to dGTP,MTH1 [3],competitive inhibition type
same,IC50,"HUVEC cells; MTT assay, immortalized cells",≥ 75 µM
same,IC50,"CHO cells; MTT assay, immortalized cells",≥ 75 µM
same,IC50,"MCF−7 cells [4]; MCF7, MTT assay, 48 h",23.9 ± 0.95 µM
same,inhibition at 200 µM,"MCF−7 cells [4]; MCF7, MTT assay",99.6 ± 0.4%
same,expression of cleaved-caspase 3 and cleaved PARP,MCF−7 cells [5]; 30 μM,upregulation of cleaved-caspase 3 and cleaved PARP
same,expression of p38,MCF−7 cells [5],significantly reduce the expression of p38
same,IC50,"MDA-MB-231 cells; MDA-MB-231, MTT assay, 48 h, cancer cell line",48.4 ± 0.68 µM
same,thermal stabilization of MTH1 (CETSA),MTH1 [6],prominent thermal stabilization
CNc1cc(NCCc2ccc(F)cc2)nc(N)n1 [MA−25],IC50,MTH1 [2]; [10],0.01374 ± 0.0001 µM
same,IC50,"MCF−7 cells [4]; MCF7, MTT assay, 48 h",82.3 ± 1.02 µM
same,inhibition at 200 µM,"MCF−7 cells [4]; MCF7, MTT assay",100 ± 0.1%
"CNc1cc(-c2cccc(Cl)c2Cl)nc(N)n1 [TH287, reference compound]",IC50,HEK-293F cells,≥ 25 µM
same,stability in vitro compared to TH588,[7],poorer stability
same,tumor growth inhibition rate,"4T1 breast cancer tumor; 200 mg/kg intraperitoneally every three days, 4T1 tumor",20.4%
same,body weight compared to the control group,4T1 breast cancer tumor,no statistically significant differences
same,IC50,"4T1 cells; 4T1, 48 h",5.9 ± 1.02 µM
same,IC50,MTH1 [2],0.00316 ± 3e-05 µM
same,type of inhibition on MTH1 with respect to dGTP,MTH1 [3],competitive inhibition type
same,IC50,HUVEC cells,≥ 25 µM
same,"blood drug concentration at 2, 3, and 4 h","[8]; 5mg/kg, 2, 3, and 4 h",below the detection limit
same,blood drug concentration at 1 h,"[8]; 5mg/kg, 1 h",1000 nM
same,IC50,CHO cells,≥ 25 µM
same,IC50,"MCF−7 cells [4]; MCF7, 48 h",3.55 ± 0.27 µM
same,expression of p38,MCF−7 cells [5],significantly reduce the expression of p38
same,IC50,"MDA-MB-231 cells; MDA-MB-231, 48 h",1.92 ± 0.34 µM
same,thermal stabilization of MTH1 (CETSA),MTH1 [6],increase the thermal stability of the MTH1 protein
